From patent US20260258073A1, “CRYSTALLINE FORMS OF A NEUROACTIVE STEROID” (SAGE THERAPEUTICS, INC., priority 2022, published 2026)

Assays:
[1] = Dynamic vapor sorption (DVS) isotherm of the solid form; assay type: physicochemical
Method: DVS was measured using a SMS (Surface Measurement Systems) DVS Intrinsic. The relative humidity at 25° C. was calibrated against deliquescence point of LiCl, Mg(NO3)2 and KCl.
To investigate the solid form stability as a function of humidity, a DVS isotherm plot of Form A was collected at 25° C.

[2] = Solid form stability on heating and cooling, checked by XRPD; assay type: physicochemical; settings: cooling down to room temperature under nitrogen protection, re-exposure to ambient conditions
Method: A PANalytical Empyrean X-ray powder diffractometer was used to collect X-ray diffraction patters as described herein. The diffraction peak position was calibrated using a PANalytical Si reference standard disc.
Form D was generated via vacuum dry of Form X. The XRPD pattern for Form D is provided in FIG. 3A and characteristic peaks are summarized in Table 20. […] (peak temperature) before a possible melting peak at 204.0° C. (peak temperature).
Form E was generated via liquid diffusion in BuOH/n-heptane of Form A at RT. […] (peak temperature) before possible melting peak at 203.1° C. (peak temperature). […] As evidenced by the presence of n-butanol methylene proton at ~3.7 ppm (1.5:1, molar ratio of n-butanol/API) detected by ^1H NMR in FIG. 4D, Form E was deemed to be an n-butanol solvate.

C[C@H](CC[C@](C)(O)C(F)(F)F)[C@H]1CC[C@H]2[C@@H]3CC=C4C[C@@](C)(O)CC[C@]4(C)[C@H]3CC[C@]12C [Form A]
water uptake (DVS) ([1]; 25° C./80% RH): 0.05% | form change after DVS test (XRPD overlay before and after) ([1]; DVS isotherm collected at 25° C.): no form change | hygroscopicity ([1]; from DVS at 25° C./80% RH): non-hygroscopic

C[C@H](CC[C@](C)(O)C(F)(F)F)[C@H]1CC[C@H]2[C@@H]3CC=C4C[C@@](C)(O)CC[C@]4(C)[C@H]3CC[C@]12C [Form E]
solid form after heating (XRPD) ([2]; heating to 140° C.): converted to Form B

C[C@H](CC[C@](C)(O)C(F)(F)F)[C@H]1CC[C@H]2[C@@H]3CC=C4C[C@@](C)(O)CC[C@]4(C)[C@H]3CC[C@]12C [Form D]
solid form after heating (XRPD) ([2]; heating to 150° C.): converted to Form A
